Earlier results, collected in patent publication US20060160157A1, “Method, compositions and classification for tumor diagnostics and treatment” (priority 2005, published 2006).

Assays:
[1] = pH change 7.5 to 4.0
GRP-R = GRP-R (Homo sapiens, UniProt P30550); conditions: radiolabeled bombesin as radioligand
GRP-R, sequence (P30550 whole entry, species assumed): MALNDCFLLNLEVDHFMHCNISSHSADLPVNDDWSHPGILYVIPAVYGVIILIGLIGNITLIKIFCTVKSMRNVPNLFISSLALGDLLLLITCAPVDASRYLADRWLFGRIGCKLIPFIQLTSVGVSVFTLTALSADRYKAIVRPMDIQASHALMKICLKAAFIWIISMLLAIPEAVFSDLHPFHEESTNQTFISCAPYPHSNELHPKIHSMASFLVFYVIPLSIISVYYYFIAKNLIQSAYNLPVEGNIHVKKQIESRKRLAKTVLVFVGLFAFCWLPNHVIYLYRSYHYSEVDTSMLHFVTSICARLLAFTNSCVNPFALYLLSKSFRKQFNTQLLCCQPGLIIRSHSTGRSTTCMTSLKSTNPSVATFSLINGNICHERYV

growth hormone
change in the ka rate constant (association) [1]: 1.7 times
change in the kd rate constant (dissociation) [1]: 1,600 times

neuromedin
GRP-R binding selectivity (rank order of affinity) (GRP-R): GRP >bombesin> neuromedin
